In brackets after ≈: the same amount, converted by molar mass. Where two headings read alike, the source gives them in different places. Where a SMILES comes first, the peptide text is derived from it. Where no end group is shown, it is not given here.
Key:
[1] = target: T1, ClpXP (Escherichia coli, UniProt P0A6G7+P0A6H1); assay: biochemical; format: biochemical, E. coli; conditions: for Ki: purified peptides and E. coli proteins, GFP-tag; for Ki / mode of inhibition of GFP-tag degradation: SspB present
T1 sequence (P0A6G7 15-207): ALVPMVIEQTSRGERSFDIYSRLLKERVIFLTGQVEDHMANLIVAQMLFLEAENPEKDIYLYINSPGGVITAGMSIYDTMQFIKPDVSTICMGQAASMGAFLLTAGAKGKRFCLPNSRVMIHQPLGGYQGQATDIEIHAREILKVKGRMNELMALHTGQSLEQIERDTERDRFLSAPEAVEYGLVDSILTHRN
T1 sequence (P0A6H1 whole entry): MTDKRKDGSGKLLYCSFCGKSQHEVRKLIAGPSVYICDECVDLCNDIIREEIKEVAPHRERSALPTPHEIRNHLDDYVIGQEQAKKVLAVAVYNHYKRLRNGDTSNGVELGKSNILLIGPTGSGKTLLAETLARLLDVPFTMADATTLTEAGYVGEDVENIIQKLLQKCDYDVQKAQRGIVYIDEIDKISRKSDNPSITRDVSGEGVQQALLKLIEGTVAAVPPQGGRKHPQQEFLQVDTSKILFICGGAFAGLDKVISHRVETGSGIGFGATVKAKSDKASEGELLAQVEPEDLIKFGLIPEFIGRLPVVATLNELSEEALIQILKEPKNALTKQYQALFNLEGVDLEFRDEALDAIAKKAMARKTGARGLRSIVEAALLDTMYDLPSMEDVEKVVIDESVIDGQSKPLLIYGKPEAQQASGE
Protocol: In vitro proteolysis assays: Proteolysis of GFP-tag was performed using a continuous fluorescence assay essentially as previously described (Levchenko et al. 2000, Science 289: 2354-2356). Briefly, loss of GFP fluorescence was monitored at 507 nm after excitation at 395 nm at 30° C. using a Hitachi F-2000 Fluorescence Spectrophotometer in buffer R (25 mM HEPES-KOH (pH 7.6), 5 mM MgCl2, 50 mM KCl, 0.032% NP-40, 10% glycerol, and an ATP regeneration system containing 4 mM ATP (pH 7), 16 mM creatine phosphate and 0.32 mg/ml creatine kinase). Typically, reactions contained […], 0.3 μM ClpP14, and equimolar concentrations (0.2 μM-2.0 μM) GFP-tag and SspB. Degradation of GFP-tag protein was confirmed by SDS-PAGE assays. To examine inhibition of GFP-tag proteolysis, peptides were incubated with ClpXP in reaction buffer for 5 min prior to the addition of GFP-tag. Plots of fluorescence versus time were fit with a single exponential function to determine the initial rate of proteolysis. Kinetic parameters were estimated using Eadie-Hofstee plots.
Proteolysis of GFP-tag in the presence of ClpXP and SspB was monitored by loss of GFP fluorescence in a continuous fluorometric assay. In the absence of cyclic peptide, GFP-tag was degraded with kinetic parameters kcat=[…], KM=0.74±0.04 μM. […] Likewise, no degradation was observed when ClpX or ClpP were omitted from the reaction.

[2] = system: C. crescentus; format: cell-based, Caulobacter crescentus; conditions: 14 h
Protocol: Antibacterial activity assays: To measure the effects of peptides on bacterial growth, cultures of C. crescentus were diluted to OD600=0.001, peptide was added at various concentrations, the cultures were incubated at 30° C. for 14 h, and the MIC was determined as the lowest concentration of peptide that prevented growth. To determine the MBC, each culture was diluted 1:100 in PYE and 10 μl of the diluted culture was spread onto PYE agar plates, incubated at 30° C. overnight, and the number of colonies on each plate was counted. The MBC was assigned as the concentration of peptide that reduced the number of colonies by 99.9% compared to cultures with no inhibitor.

[3] = system: GFP-tag reporter; assay: GFP-tag reporter fluorescence in cells expressing SGW+5 SICLOPPS clones, epifluorescence microscopy (Example 1); format: cell-based, E. coli
Text: Clonal populations are obtained by spotting the cells with high fluorescence on agar plates, and cells from each colony are screened by epi-fluorescence microscopy for fluorescence intensity. SICLOPPS plasmids from clones that pass the microscopy screen were isolated and sequenced to identify the cyclic peptide that is produced in that clone.
A SICLOPPS library was constructed in which the cyclic peptide contains three constant amino acids, SGW, followed by five random amino acids encoded by NNS codons. This library was introduced into cells containing the GFP-tag reporter, and the expression of the reporter and cyclic peptide were induced. Approximately 690,000 cells were sorted by FACS and the brightest 50 were isolated. These 50 clones were grown individually in fresh medium, the expression of reporter and cyclic peptide was induced, and the culture was observed by epifluorescence microscopy. Two clones produced cultures in which nearly 100% of the cells were highly fluorescent.

[4] = system: GFP-tag degradation by ClpXP; assay: In vivo screen: GFP-tag reporter fluorescence in E. coli producing the cyclic peptide from a SICLOPPS plasmid, epifluorescence microscopy (Example 3); format: cell-based
Protocol: Screen for inhibitors of the tmRNA pathway: E. coli BW7786 cells containing the GFP-tag reporter and the SICLOPPS library were grown in LB broth with 30 μg/ml chloramphenicol, 100 μg/ml ampicillin, and 0.0002% arabinose at 37° C. to OD600=0.3. IPTG was added to a final concentration of 1 mM, and the culture was grown for 3 hours. Cells were sorted by fluorescence activated cell sorting (FACS) using a Beckman Coulter Elite cell sorter with Autoclone to isolate cells with GFP fluorescence, and selected cells were deposited on agar plates for clonal growth. Cells from each colony were grown in liquid culture as described above and examined by epifluorescence microscopy. The fluorescence intensity and the number of cells with fluorescence above background were scored using ImagePro software (MediaCybernetics). SICLOPPS plasmid DNA was prepared from selected clones and the region encoding the cyclic peptide was sequenced. Peptide sequences were obtained from conceptual translation of the DNA sequences.
Approximately 0.014% of the population had fluorescence over the background level, and 96 of these cells were isolated for clonal growth and characterization. To eliminate any clones that resulted from sorting errors or spurious accumulation of GFP, cells from each colony were cultured and examined by epifluorescence microscopy.

[5] = target: T1, ClpXP; assay: ClpXP degradation of λO protein (Example 1); format: biochemical, E. coli; conditions: concentrations near or 10-fold above the KI for GFP-tag
Protocol: The differing effects of SspB on inhibition indicate that inhibitors for two different steps in the ClpXP degradation pathway were obtained from the genetic screen. To confirm the different specificities of these two inhibitors, the effects on ClpXP degradation of a substrate unrelated to tmRNA tagged proteins was assayed. Because ClpXP can recognize at least 5 different protein sequences as substrate determinants, it has been proposed that there are several substrate binding sites on the protease. Inhibitors that block one site of interaction are expected to affect degradation of only the substrates that bind at that site. Conversely, inhibitors that block catalysis or obstruct a binding site required by all substrates should affect degradation of any ClpXP substrate.

[6] = target: T1, ClpXP; assay: ClpXP degradation of GFP-tag in the absence of SspB (Examples 1-2); format: biochemical, E. coli; conditions: for Ki: GFP-tag degradation by ClpXP; for Ki / inhibition of GFP-tag degradation by ClpXP in the absence of SspB: no SspB
Protocol: (§1) ClpXP Proteolysis: PD buffer contained 25 mM HEPES-KOH (pH 7.6), 5 mM KCl, 5 mM MgCl2, 0.032% NP-40, 5 mM ATP, and 10% glycerol. The ATP regenerating system consisted of 8 mM creatine phosphate and 0.16 mg/ml creatine kinase. Inhibition experiments were performed using a Hitachi F-2000 Fluorescence Spectrophotometer. The rate of GFP-ssrA degradation was monitored at 30° C. for 5 minutes by the loss of fluorescence (excitation 488 nm; emission 507 nm). Competition experiments with increasing concentrations of peptide were performed using GFP-ssrA (0.2 μM), ClpX6 (0.3 ArM), ClpP14 (0.8 μM), and SspB2 (0.3 μM) in PD buffer plus 200 mM KCl and ATP regenerating system. Curve fitting for the competitive inhibition assays were performed using the Scientist program (MicroMath Scientific Software, Inc.).
A priori, there are several steps in the degradation pathway that could be inhibited by the selected cyclic peptides: binding of the substrate-SspB complex to ClpXP, ATPase activity of ClpX, and hydrolysis of the peptide bond by ClpP. Molecules that block the binding of substrate to SspB should not be inhibitors of proteolysis by ClpXP, because ClpXP will degrade tmRNA-tagged substrates in the absence of SspB. To determine if the inhibitors act through SspB, the kinetic assays were repeated in the absence of this proteolytic adaptor.

[7] = system: C. crescentus; format: cell-based, Caulobacter crescentus
Protocol: Antibacterial activity: The peptides recovered from the selection were tested for antibacterial activity by incubating a 1:1,000 diluted saturated culture with the peptide overnight at room temperature. For each peptide a series of concentrations were tested. The mix was then plated, and the colonies were counted after a period incubation at 30° for C. crescentus or 37° C. for B. subtilis. For C. crescentus, PYE liquid media were incubated overnight at 30° C. at 250 rpm, and PYE plates were incubated for 3 days at 30° C. For B. subtilis, LB liquid media and plates were incubated overnight at 37° C. […]
Antibacterial activity of cyclic peptide inhibitors: Because ClpXP is essential in C. crescentus, we examined whether the inhibitory peptides have any effect when added exogenously to growing cultures. […] ClpXP is not essential in Bacillus subtilis, but mutants lacking ClpXP activity have growth and sporulation defects. […] No killing of E. coli or the related γ-proteobacteria Shigella flexneri and Vibrio cholera was observed. It remains to be determined if the selected cyclic peptides are effective against pathogenic bacterial that require the tmRNA-ClpXP pathway.

[8] = target: T1, ClpXP; assay: ClpXP degradation of GFP-tag in the presence of SspB, continuous fluorimetric assay (Examples 1-2); format: biochemical, E. coli; conditions: GFP-tag degradation by ClpXP
Protocol: as §1
Characterization of ClpXP inhibitors in vitro: Two of the selected cyclic peptides were synthesized in vitro to examine their effects on enzymatic assays. Peptides with the sequence SGWRVQGPL (SEQ ID NO: 1) and SGSKGVLPL (SEQ ID NO: 2) were chemically synthesized in the linear form, circularized, and purified by HPLC. The effects of these peptides on the activity of purified ClpXP were determined in vitro using a continuous fluorimetric assay. GFP-tag, SspB, ClpX and ClpP were each purified from over-expressing strains of E. coli, and degradation of GFP-tag was monitored by loss of fluorescence. In reactions containing all components, GFP-tag was degraded with kinetic parameters kcat=1.79±0.08 min−1, KM=0.74±0.04, similar to the previously published values of 1.44 min^−1 and 0.96 μM. […] For both cyclic peptides, inhibition of ClpXP was reversible, as no inhibition was observed when ClpXP was incubated with peptide at concentrations above the Kr, and dialyzed to remove unbound peptide before addition of enzyme to the reaction. The linear versions of SGSKGVLPL (SEQ ID NO: 2) and SGWRVQGPL (SEQ ID NO: 1) had Kb, values >1 mM (Table 4), so the cyclic architecture is likely to be important for inhibition.

[9] = SspB present, read-out: KI value +SspB

| Compound | inhibition of ClpXP proteolysis of GFP-tag in vitro ([1]; at the concentrations tested) | Ki [1] [µM] | MBC [2] [µM] | MIC [2] [µM] | Ki [6] [µM] | MIC [7] [µM] | also measured |
| --- | --- | --- | --- | --- | --- | --- | --- |
| CSCC[C@@H]1NC(=O)CNC(=O)[C@H](CCCNC(=N)N)NC(=O)[C@H](CCCNC(=N)N)NC(=O)[C@H](Cc2c[nH]cn2)NC(=O)[C@H](Cc2c[nH]c3ccccc23)NC(=O)CNC(=O)[C@H](CO)NC1=O [IXP2, SGWHRRGM] (HELM PEPTIDE1{G.M.S.G.W.H.R.R}$PEPTIDE1,PEPTIDE1,1:R1-8:R2$$$V2.0) | did not inhibit | > 1000 | >600 | 430 ± 40 (≈ 416 µg/mL) |  |  | average fluorescent intensity relative to cultures expressing ICP1 or ICP2 [3]: more than twice; cells highly fluorescent ([3]; induced culture): ~100%; % fluorescent cells ([4]; cells with fluorescence at least 0.5 times that of ΔclpX cells producing GFP-tag): 30-40%; GFP-tag fluorescence / inhibition in vivo ([4]; compared with ΔclpX strain): indistinguishable from the ΔclpX strain |
| CC(C)C[C@@H]1NC(=O)[C@@H]2CCCN2C(=O)CNC(=O)[C@H](CCC(N)=O)NC(=O)[C@H](C(C)C)NC(=O)[C@H](CCCNC(=N)N)NC(=O)[C@H](Cc2c[nH]c3ccccc23)NC(=O)CNC(=O)[C@H](CO)NC1=O [ICP2, SGWRVQGPL] (HELM PEPTIDE1{G.P.L.S.G.W.R.V.Q}$PEPTIDE1,PEPTIDE1,1:R1-9:R2$$$V2.0) | inhibited |  |  |  | > 1000 | 62.2 (≈ 61 µg/mL) | mode of inhibition of GFP-tag degradation [1]: competitive inhibitors; effect on degradation of λO protein by ClpXP [5]: no effect; inhibition of GFP-tag degradation by ClpXP in the absence of SspB [6]: did not inhibit; KI in the absence of SspB, fold higher ([6]; no SspB versus +SspB): at least 10 fold |
| SGGRGGRPL (also: cyclic, mode of cyclisation not given here) [IXP5] |  |  |  |  |  |  | inhibition of ClpXP proteolysis of GFP-tag in vitro [1]: did not inhibit |
| SGWHRRGM [linear IXP2, SGWHRRGM] |  |  | 376 ± 37 | 304 ± 27 |  |  |  |
| H-SGWYGRRH-OH [linear IXP1, SGWYGRRH] |  | > 1000 | 481 ± 38 | 385 ± 28 |  |  | inhibition of ClpXP in vitro at concentrations up to 1 mM [1]: little inhibition |
| CSCC[C@@H]1NC(=O)[C@H](Cc2c[nH]c3ccccc23)NC(=O)[C@H](CCCCN)NC(=O)[C@H](Cc2ccc(O)cc2)NC(=O)[C@@H]2CCCN2C(=O)[C@H](Cc2c[nH]c3ccccc23)NC(=O)CNC(=O)[C@H](CO)NC1=O [Con62, SGWPYKWM, reference compound] (HELM PEPTIDE1{G.W.P.Y.K.W.M.S}$PEPTIDE1,PEPTIDE1,1:R1-8:R2$$$V2.0) |  | > 1000 | >600 | >600 | > 1000 | >250 | Ki [8, 9]: > 1000 µM |
| SGWRVQGPL [linICP2, SGWRVQGPL] |  |  |  |  |  | >250 |  |
| CC(C)C[C@@H]1NC(=O)[C@@H]2CCCN2C(=O)[C@H](CC(C)C)NC(=O)[C@H](C(C)C)NC(=O)CNC(=O)[C@H](CCCCN)NC(=O)[C@H](CO)NC(=O)CNC(=O)[C@H](CO)NC1=O [ICP1, SGSKGVLPL] (HELM PEPTIDE1{G.S.K.G.V.L.P.L.S}$PEPTIDE1,PEPTIDE1,1:R1-9:R2$$$V2.0) | inhibited |  |  |  |  | 62.2 (≈ 52.2 µg/mL) | mode of inhibition of GFP-tag degradation [1]: competitive inhibitors; effect on degradation of λO protein by ClpXP [5]: inhibited; inhibition of GFP-tag degradation by ClpXP in the absence of SspB [6]: inhibited |
| H-SGSKGVLPL-OH [linICP1, SGSKGVLPL] |  |  |  |  | > 1500 | >250 | inhibition of ClpXP in vitro at concentrations up to 1 mM [1]: little inhibition; Ki [8, 9]: > 1500 µM; Ki ([8]; read-out: Kb, values (KI) of linear versions): > 1000 µM |
